Source: patent US20060171966A1, “Variants of vibrio cholerae 01 biotype e1 tor with attributes of classical biotype” (priority 2002, published 2006)

Experiments:
Format in all cases: cell-based, Vibrio cholerae O1
V. cholerae O1 Matlab I = experiment: Sensitivity to polymyxin B (50U), Matlab I; conditions: 2 strains
Description: (§1) […]. The basis of a retrospective examination of these strains was their unusual response to polymyxin B (50U), chicken cell agglutination (CCA), Voges-Proskauer (VP) reaction, and sensitivity to group IV and V phages, all of which are phenotypic traits commonly used to differentiate between the classical and El Tor biotypes. The 24 strains were reexamined for the above phenotypic characteristics by standard procedures.
(§2) We examined the commonly used phenotypic traits used to distinguish between the El Tor and classical biotypes of V. cholerae and differentiated the 24 strains into three types (Table 1), which we classified as Matlab types I, II, and III. Matlab type I included two strains belonging to the Inaba serotype that were resistant to both the El Tor-specific group IV and the classical biotype specific group V phages, negative by the CCA and VP tests (both are classical traits), and resistant to polymyxin B (an El Tor trait).

V. cholerae O1 Matlab II = experiment: Sensitivity to polymyxin B (50U), Matlab II; conditions: 1 strain
Description: as §1, §2

[1] = tested on: V. cholerae O1 Matlab III; experiment: Sensitivity to polymyxin B (50U), Matlab III; conditions: 21 strains
Description: as §1, §2

Q: With polymyxin B as the substance, how does the “Sensitivity to polymyxin B (50U)” value (V. cholerae O1 Matlab I) read?
A: resistant

Q: What about the “Sensitivity to polymyxin B (50U)” value (V. cholerae O1 Matlab II) of the same substance?
A: sensitive

Q: And the “Sensitivity to polymyxin B (50U)” value [1]?
A: typical of the El Tor biotype
